Data published in the supplement of paper PMC10307832.

What was measured:
Assay in all cases: relative viability (nuclei count vs DMSO), 5 days (fraction); higher = more cells survive
XMD8-85 + Foretinib = compound: CN1CCN(CC1)C2=CC(=C(C=C2)NC3=NC=C4C(=N3)N(C5=CC=CC=C5C(=O)N4C)C)OC [XMD8-85] + COc1cc2c(Oc3ccc(NC(=O)C4(C(=O)Nc5ccc(F)cc5)CC4)cc3F)ccnc2cc1OCCCN1CCOCC1 [Foretinib] (partner 0.25 µM)
Procedure, shortened: (§1)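 Lung cancer cell lines were seeded in 1536-well plates and dosed by pin tool the next day, with either a single drug or a fixed anchor-drug dose combined with five library-drug doses (not always all listed) spaced in √10 steps. Five days later, one step fixed the cells and stained their nuclei (final 0.05% Triton X-100, 1% formaldehyde, 1 ug/ml Hoechst), and nuclei were counted on 4× images. Relative viability is the nuclei count in treated wells divided by the count in vehicle wells, and each value is the median of duplicate plates.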

XMD8-85 + Vorinostat = compound: CN1CCN(CC1)C2=CC(=C(C=C2)NC3=NC=C4C(=N3)N(C5=CC=CC=C5C(=O)N4C)C)OC [XMD8-85] + O=C(CCCCCCC(=O)Nc1ccccc1)NO [Vorinostat] (partner 1 µM)
Procedure, shortened: as §1

4EGI-1 + Trametinib = compound: O=C(O)C(Cc1ccccc1[N+](=O)[O-])=NNc1nc(-c2ccc(Cl)c(Cl)c2)cs1 (mixture of isomers) [4EGI-1] + CC(=O)Nc1cccc(-n2c(=O)n(C3CC3)c(=O)c3c(Nc4ccc(I)cc4F)n(C)c(=O)c(C)c32)c1 [Trametinib] (partner 0.02 µM)
Procedure, shortened: as §1

4EGI-1 + Navitoclax = compound: O=C(O)C(Cc1ccccc1[N+](=O)[O-])=NNc1nc(-c2ccc(Cl)c(Cl)c2)cs1 (mixture of isomers) [4EGI-1] + CC1(C)CCC(c2ccc(Cl)cc2)=C(CN2CCN(c3ccc(C(=O)NS(=O)(=O)c4ccc(N[C@H](CCN5CCOCC5)CSc5ccccc5)c(S(=O)(=O)C(F)(F)F)c4)cc3)CC2)C1 [Navitoclax] (partner 0.5 µM)
Procedure, shortened: as §1

Row | Cell Line | relative viability (XMD8-85 + Foretinib; first compound 0.08 µM) | relative viability (XMD8-85 + Foretinib; first compound 0.253 µM) | relative viability (XMD8-85 + Foretinib; first compound 0.8 µM) | relative viability (XMD8-85 + Foretinib; first compound 2.53 µM) | relative viability (XMD8-85 + Foretinib; first compound 8 µM) | relative viability (XMD8-85 + Vorinostat; first compound 0.08 µM) | relative viability (XMD8-85 + Vorinostat; first compound 0.253 µM) | relative viability (XMD8-85 + Vorinostat; first compound 0.8 µM) | relative viability (XMD8-85 + Vorinostat; first compound 2.53 µM) | relative viability (XMD8-85 + Vorinostat; first compound 8 µM) | relative viability (4EGI-1 + Trametinib; first compound 0.5 µM) | relative viability (4EGI-1 + Trametinib; first compound 1.581 µM) | relative viability (4EGI-1 + Trametinib; first compound 5 µM) | relative viability (4EGI-1 + Trametinib; first compound 15.81 µM) | relative viability (4EGI-1 + Trametinib; first compound 50 µM) | relative viability (4EGI-1 + Navitoclax; first compound 0.5 µM) | relative viability (4EGI-1 + Navitoclax; first compound 1.581 µM) | relative viability (4EGI-1 + Navitoclax; first compound 5 µM) | relative viability (4EGI-1 + Navitoclax; first compound 15.81 µM) | relative viability (4EGI-1 + Navitoclax; first compound 50 µM)
1 | NCI-H727 | 0.895 | 1.05 | 0.823 | 0.553 | 0.693 | 1.09 | 1.23 | 1.17 | 1.24 | 0.984 | 0.365 | 0.398 | 0.377 | 0.386 | 0.376 | 0.434 | 0.519 | 0.427 | 0.257 | 0.204
2 | LCLC-103H | 0.842 | 0.919 | 0.692 | 0.857 | 0.554 | 0.799 | 0.77 | 0.784 | 0.801 | 0.585 | 0.684 | 0.634 | 0.626 | 0.581 | 0.465 | – | – | – | – | –
3 | ABC-1 | 0.871 | 0.9 | 1.41 | 0.947 | 0.578 | 1.2 | 1.27 | 1.01 | 0.969 | 0.533 | – | – | – | – | – | – | – | – | – | –
4 | NCI-H3122 | 1.04 | – | 1.07 | 1.04 | 0.947 | 1.02 | 1.17 | 1.03 | 1.08 | 1.38 | 0.235 | 0.246 | 0.233 | 0.232 | 0.305 | 1.01 | 0.975 | 1.02 | 1.06 | 1.01
5 | NCI-H1648 | – | – | – | – | – | 0.522 | 0.474 | 0.265 | 0.244 | 0.292 | 0.574 | 0.506 | 0.471 | 0.526 | 0.304 | – | – | – | – | –
6 | NCI-H1703 | 0.353 | 0.363 | 0.33 | 0.374 | 0.35 | – | – | – | – | – | – | – | – | – | – | 1.54 | 1.06 | 1.6 | 1.19 | 0.427
7 | HOP-62 | 1.14 | 1.13 | 0.971 | 0.946 | 0.466 | 0.605 | 0.673 | 0.622 | 0.598 | 0.231 | 0.415 | 0.356 | 0.329 | 0.28 | 0.234 | 1.11 | – | 1.02 | 0.995 | 1.06
8 | NCI-H2405 | 1.07 | 1.08 | 1.07 | 1.04 | 0.984 | 0.993 | 0.992 | 1.08 | 1.06 | 0.549 | 0.856 | – | 0.703 | 0.771 | 0.482 | 1.28 | 0.628 | 1.09 | 1.15 | 0.58
9 | LXF-289 | 0.887 | 0.997 | 0.993 | 0.977 | 0.812 | 0.749 | 0.893 | 0.781 | 0.875 | 0.795 | 0.716 | 0.669 | 0.61 | 0.622 | 0.583 | 1.01 | 0.933 | 0.983 | 0.915 | 0.784
10 | NCI-H1355 | 1.02 | 1.01 | 0.977 | 0.878 | 0.811 | 0.682 | 0.564 | 0.642 | 0.655 | 0.545 | 0.47 | 0.428 | 0.372 | 0.319 | 0.33 | 1.07 | 0.95 | 0.841 | 0.644 | 0.677
11 | NCI-H596 | 0.844 | 0.85 | 0.983 | 0.642 | 0.502 | 0.517 | 0.559 | 0.495 | 0.53 | 0.361 | 1.09 | 0.83 | 0.918 | 0.661 | 0.545 | 0.956 | 0.708 | 0.86 | 0.869 | 0.805
12 | NCI-H1975 | 1.05 | 0.925 | 0.917 | 0.779 | 0.561 | 0.708 | 0.691 | 0.706 | 0.693 | 0.473 | 0.341 | 0.32 | 0.325 | 0.289 | 0.212 | 1.2 | 1.05 | 0.984 | 1.08 | 1.18
13 | H3255 | 1.03 | 0.917 | 0.892 | 0.931 | 0.627 | 0.875 | 0.761 | 0.867 | 0.902 | 0.536 | 0.679 | – | 0.614 | – | 0.523 | 0.587 | 0.477 | 0.557 | 0.137 | 0.368
14 | COR-L 105 | 1.21 | 1.14 | 1.08 | 0.672 | 0.387 | 0.737 | 0.91 | 0.768 | 0.661 | 0.543 | 0.462 | 0.444 | 0.44 | 0.401 | 0.394 | 0.618 | 0.668 | 1.02 | 0.597 | 0.43
15 | EBC-1 | 0.104 | 0.0951 | 0.112 | 0.0978 | 0.0972 | – | – | – | – | – | – | – | – | – | – | 0.525 | 0.402 | 0.624 | 0.308 | 0.142
